Experiment [1] concerns the target PLpro (Severe acute respiratory syndrome coronavirus 2 (2019-nCoV) (SARS-CoV-2), UniProt P0DTD1). In words: Assay for PLpro inhibitory activity (Ub-AMC fluorescence; single point inhibition test and IC50 determination). To be noted: for IC50: fluorescence measured after 15 min of reaction; for inhibition at 1 µM: read-out: inhibition of PLpro (1 μM), 1 μM test compound, 100 nM PLpro, 10 μM Ub-AMC, 37° C. 30 min. Format: biochemical.

In experiment [2] the test system is SARS-CoV-2 live virus (Delta strain). Nature of the experiment: microbe, parasite or virus in culture. The class given is cell-based.
[3] abbreviates: Severe acute respiratory syndrome coronavirus 2, Calu-3, 48 h.

“And” between values parts separate entries of the source, which are not always exact repeats. Equal values may be shown once.

One may read the IC50 as the concentration that inhibits the measured activity by half. Lower therefore signals inhibition by little substance. The EC50 is the concentration that produces a half-maximal response. Read a high EC50 as a need for much substance. For orientation: EC90 means the concentration needed for an effect of 90%.

In experiment [1], `Cc1ccc(N2CC(N(C)C)C2)cc1C(=O)NC1(c2ccc(F)c3ncccc23)CC1` [Example C26] had a concentration for half-maximal inhibition (IC50) of 38.3 ± 5.27 nM. Besides, the inhibition at 1 µM in experiment [1] is 95.9%. The Inhibition rate/% was 2.076% and 45.3104% and −0.0016% in experiment [2] (3.125 nM, Calu-3 cells, Delta strain, 48 h, three replicate values); 37.9405% and 58.6715% and 67.2927% in experiment [2] (6.25 nM, Calu-3 cells, Delta strain, 48 h, three replicate values); −4.0599% and 50.6792% and 17.0436% in experiment [2] (12.5 nM, Calu-3 cells, Delta strain, 48 h, three replicate values); −64.656% and 17.2863% and 31.5856% in experiment [2] (25 nM, Calu-3 cells, Delta strain, 48 h, three replicate values); 92.4972% and 64.3219% and 67.0889% in experiment [2] (50 nM, Calu-3 cells, Delta strain, 48 h, three replicate values); 93.9064% and 96.0939% in experiment [2] (100 nM, Calu-3 cells, Delta strain, 48 h, three replicate values). Further, the Inhibition rate/% in experiment [2] (200 nM, Calu-3 cells, Delta strain, 48 h, three replicate values) is 99.5887% and 99.6848%; in experiment [2] (400 nM, Calu-3 cells, Delta strain, 48 h, three replicate values), 99.9327% and 99.8544%. Further, a half-maximal effect in experiment [2] (setting [3]) (EC50) was put at 36.3 ± 4.11 nM. Also, the EC90 in experiment [2] (setting [3]) is 73.1 ± 7.23 nM. Further, in experiment [2] (Severe acute respiratory syndrome coronavirus 2, Calu-3, 48 h, 100 nM, Calu-3 cells, Delta strain, 48 h, three replicate values, read-out: Inhibition rate/%), the inhibition at 0.1 µM was 92.2%. Besides, the inhibition at 0.2 µM in experiment [2] (Severe acute respiratory syndrome coronavirus 2, Calu-3, 48 h, 200 nM, Calu-3 cells, Delta strain, 48 h, three replicate values, read-out: Inhibition rate/%) amounted to 99.9%. The inhibition at 0.4 µM in experiment [2] (Severe acute respiratory syndrome coronavirus 2, Calu-3, 48 h, 400 nM, Calu-3 cells, Delta strain, 48 h, three replicate values, read-out: Inhibition rate/%) was 100%. In addition, the “inhibition of SARS-CoV-2 live virus infecting human cells (in words)” value in experiment [2] (in vitro experiment) is listed as “can effectively inhibit SARS-CoV-2 live virus from infecting human cells”.
With `Cc1ccc(N2CC(N(C)C)C2)cc1C(=O)NC1(c2ccc3ccccc3c2)CC1` [Example C47], in experiment [1], the inhibition at 1 µM is 58%.
On the same count and under the same terms, for `Cc1ccc(N2CCN(C(C)C)CC2)cc1C(=O)NC1(c2ccc(F)c3ccccc23)CC1` [Example C48] the value was 84.4%; for `Cc1ccc(N2CCN(C3CC3)CC2)cc1C(=O)NC1(c2ccc(F)c3ccccc23)CC1` [Example C49], 58.4%.
The same measure, in the same setting: for `Cc1ccc(NC2CCNC2)cc1C(=O)NC1(c2ccc(F)c3ccccc23)CC1` (stereo not shown) [Example C50] the value was 27.8%; for `Cc1ccc(NC2CCN(C)CC2)cc1C(=O)NC1(c2ccc(F)c3ncccc23)CC1` [Example C51], 38.4%; for `Cc1ccc(NC2CCNC2)cc1C(=O)NC1(c2ccc(F)c3ncccc23)CC1` (stereo not shown) [Example C53], 44.9%.
Same read-out and setting: for `Cc1ccc(NC2CCNCC2)cc1C(=O)NC1(c2ccc(F)c3ncccc23)CC1` [Example C56] the value was 24.5%; for `Cc1ccc(N2CC(N(C)C)C2)cc1C(=O)NC1(c2cccc3ccsc23)CC1` [Example C57], 92%.
Regarding `Cc1ccc(N2CC(N(C)C)C2)cc1C(=O)NC1(c2ccc(OC(F)(F)F)c3ncccc23)CC1` [Example C58], in experiment [1], the IC50 is 220 nM and the inhibition at 1 µM was found to be 88%.
`Cc1ccc(N2CC([N+](C)(C)[O-])C2)cc1C(=O)NC1(c2ccc(F)c3ncccc23)CC1` [Example C59]: the inhibition at 1 µM in experiment [1] stood at 0%.
On the same count and under the same terms, to `Cc1ccc(N2CC(N(C)C)C2)cc1C(=O)NC1(c2ccc(F)c3[nH]c(=O)ccc23)CC1` [Example C60] belongs 82%.
For the molecule `Cc1ccc(N2CC(N(C)C)C2)cc1C(=O)NC1(c2cc(C(F)(F)F)nc3c(C(F)(F)F)cccc23)CC1` [Example C61], in experiment [1], the inhibition at 1 µM was 85%.
On the same count and under the same terms, to `Cc1ccc(N2CC(N(C)C)C2)cc1C(=O)NC1(c2ccc(F)c3nc(C(F)F)ccc23)CC1` [Example C62] belongs 92%.
Turning to `Cc1ccc(N2CCC(O)CC2)cc1C(=O)NC1(c2ccc(F)c3ncccc23)CC1` [Example C63], in experiment [1], the inhibition at 1 µM worked out at 30%.
`COc1ccc2c(C3(NC(=O)c4cc(N5CC(N(C)C)C5)ccc4C)CC3)ccc(F)c2n1` [Example C64]: in experiment [1], the half-inhibitory concentration (IC50) was determined as 50.6 nM and the inhibition at 1 µM was found to be 78%.
Turning to `Cc1ccc(N2CC(C(C)(C)O)C2)cc1C(=O)NC1(c2ccc(F)c3ncccc23)CC1` [Example C65], the inhibition at 1 µM in experiment [1] is 22%.
On the same count and under the same terms, to `Cc1ccc(N2CC3C(N)C3C2)cc1C(=O)NC1(c2ccc(F)c3ncccc23)CC1` (stereo not shown) [Example C66] belongs 68%.
As to `Cc1ccc(N2CC(N(C)C)C2)cc1C(=O)NC1(c2ccnc3c(F)cccc23)CC1` [Example C67], in experiment [1], the IC50 came out at 36.6 nM and the inhibition at 1 µM came to 97.7%.
In the same order, the values of `Cc1ccc(N2CC(N(C)C)C2)cc1C(=O)NC1(c2ccc(OC(F)F)c3ccccc23)CC1` [Example C68] are 182 nM and 98.5%.
In the same order, the values of `Cc1ccc(N2CC(N(C)C)C2)cc1C(=O)NC1(c2ccc(OC(F)F)c3ncccc23)CC1` [Example C69] are 29.3 nM and 98.8%.
Taken in the same sequence, the figures for `Cc1ccc(N2CC(N(C)C)C2)cc1C(=O)NC1(c2ccc(C#N)c3ccccc23)CC1` [Example C70] were 40.6 nM and 99.2%.
With `Cc1ccc(N2CC(N(C)C)C2)cc1C(=O)NC1(c2cccc(Oc3ccccc3)c2)CC1` [Example C71], the inhibition at 1 µM in experiment [1] is 25%.
The same measure, in the same setting: for `Cc1ccc(N2CC(N(C)C)C2)cc1C(=O)NC1(c2ccc3c(c2)c2ccccc2n3C)CC1` [Example C72] the value was 91%.
With `Cc1ccc(N2CC(N(C)C)C2)cc1C(=O)NC1(c2cnc(O)c3ccccc23)CC1` [Example C73], in experiment [1], the half-maximal inhibitory concentration (IC50) worked out at 172 ± 18.1 nM and the inhibition at 1 µM amounted to 89.3%.
As for `COc1ncc(C2(NC(=O)c3cc(N4CC(N(C)C)C4)ccc3C)CC2)c2ccccc12` [Example C74], in experiment [1], the half-maximal inhibitory concentration (IC50) is 217 ± 22.2 nM and the inhibition at 1 µM was 88.6%.
Taken in the same sequence, the figures for `Cc1ccc(N2CC(N(C)C)C2)cc1C(=O)NC1(c2ccc(C)c3ncccc23)CC1` [Example C75] were 4.71 ± 1.38 nM and 99.4%.
Taken in the same sequence, the figures for `COc1ccc(C2(NC(=O)c3cc(N4CC(N(C)C)C4)ccc3C)CC2)c2cccnc12` [Example C76] were 15.9 ± 3.25 nM and 99.6%.
Regarding `Cc1ccc(N2CC(N(C)C)C2)cc1C(=O)NC1(c2cccc3c2OCCO3)CC1` [Example C77], the inhibition at 1 µM in experiment [1] worked out at 63%.
The same measure, in the same setting: for `Cc1ccc(N2CC(N(C)C)C2)cc1C(=O)NC1(c2cccc3c2OCO3)CC1` [Example C78] the value was 25.4%; for `Cc1ccc(Br)cc1/C=N/C1(c2ccc(F)c3ncccc23)CC1` [Example C79], 16.5%; for `Cc1ccc(N2CC(N(C)C)C2)cc1/C=N/C1(c2ccc(F)c3ncccc23)CC1` [Example C80], 11.9%.
Same read-out and setting: to `Cc1ccc(N2CC(CN)C2)cc1C(=O)NC1(c2ccc(F)c3ncccc23)CC1` [Example C81] belongs 37.1%.
With `Cc1ccc(N2CC(C(C)(C)N)C2)cc1C(=O)NC1(c2ccc(F)c3ncccc23)CC1` [Example C82], the inhibition at 1 µM in experiment [1] came out at 8.2%.
The same measure, in the same setting: to `Cc1ccc(N2CC(CN(C)C)C2)cc1C(=O)NC1(c2ccc(F)c3ncccc23)CC1` [Example C83] belongs 24.2%; to `Cc1ccc(N2CC(N(C)C)C2)cc1CNC1(c2ccc(F)c3ncccc23)CC1` [Example C85], 45.7%.
The same measure, in the same setting: to `Cc1ccc(N)cc1CNC1(c2ccc(F)c3ncccc23)CC1` [Example C86] belongs 33.5%; to `Cc1ccc(N)cc1C(=O)NC1(c2ccc(F)c3ncccc23)CC1` [Example C87], 23.1%.
On to `Cc1ccc(N2CC(N(C)C)C2)cc1C(=O)NC1(c2ccc(N(C)C)c3ccccc23)CC1` [Example C88], for which, in experiment [1], the half-maximal inhibitory concentration (IC50) is 175 nM and the inhibition at 1 µM worked out at 96.2%.
Taken in the same sequence, the figures for `Cc1ccc2c(C3(NC(=O)c4cc(N5CC(N(C)C)C5)ccc4C)CC3)ccc(F)c2n1` [Example C89] were 119 nM and 82%.
On to `[2H]C1([2H])C(N(C)C)C([2H])([2H])N1c1ccc(C)c(C(=O)NC2(c3ccc(F)c4ncccc34)CC2)c1` [Example C90], for which, in experiment [1], it took 69.8 nM to reach half-maximal inhibition (IC50) and the inhibition at 1 µM is 85%.
Turning to `Cc1ccc(N2CC(N(C)C)C2)cc1C(=O)NC1(c2cccc3c2ccn3C)CC1` [Example C91], the inhibition at 1 µM in experiment [1] stood at 71%.
